Data taken from patent US20200206172A1, “COMPOSITIONS AND METHODS FOR TREATING NEURODEGENERATIVE DISORDERS” (GNT Pharma Co., Ltd., priority 2018, published 2020).
Values joined by “and” are separate entries in the source; they are usually repeats but may differ in a detail not shown here. Equal values may be shown once.

Tests used:
[1] = system: moderate-to-severe AD; conditions: cited from earlier work
[2] = system: CDS dogs; conditions: literature [17-19]; effect in most dogs disappeared at 8 weeks after treatment; cited from earlier work
[3] = system: dogs with CDS; test: CCDR scale questionnaire in companion dogs with CDS, randomized blind placebo-controlled clinical trial; type: in vivo, dog; parameters: key to CCDR score, 4 weeks / CCDR score, 8 weeks / CCDR score, 12 weeks / CCDR score, 16 weeks (discontinuation) / CCDR score, 20 weeks (discontinuation) / CCDR score, 12 weeks (discontinuation): CCDR scale points (13 items); ≥50 indicates CDS
From the text: (§1) The companion animals tested in the study were 22 elderly dogs (12-19 years of age) diagnosed with CDS. Each dog enrolled for the present study met the following criteria: body weight <12 kg (regardless of gender), dogs which had lived with the owner for at least 90 days, dogs which were able to take oral medicine, dogs with CDS diagnosed by investigator (canine cognitive dysfunction rating (CCDR) scale ≥50 points) and dogs with informed consent of their owners. Dogs with a pregnancy or lactating, with hypersensitivity against salicylic acid derivatives, or with the underlying disease (i.e. renal dysfunction, visual loss, heart failure, or renal failure) were excluded. In addition, dogs which had participated any other clinical trials within 90 days or dogs which had not only CDS but also other neurodegenerative diseases were excluded.
(§2) This study was a randomized, blind, placebo-controlled clinical trial to investigate the efficacy and safety of Compound 2 in dogs with CDS. To investigate the efficacy of Compound 2, two questionnaires were evaluated: CCDR scale and canine dementia scale (CADES). To measure the safety of Compound 2, not only the occurrence of adverse events was investigated but also the vital signs, physical examination, and blood tests were performed in the dogs. Compound 2 was prescribed for oral administration of 10 mg/kg once-daily dosing for 8 weeks. Subjects 3 and 4 received Compound 2 additionally for 4 weeks with approval of the principal investigator. Instead of Compound 2, subjects 18-22 received placebo for 8 weeks. In this study, we allowed the dogs to be administered Compound 2 in various ways: mix with dietary supplement (subjects 1 and 3), mix with food (subjects 2 and 6), dissolve in water (subject 4), or capsule with water (subject 5), or chewable tablet with water (subjects 7-22).
(§3) Rating scales are essential tools for CDS diagnosis, staging, assessment, and careful monitoring of the disease symptoms as well as for evaluation of the efficacy of therapeutic strategies. Several rating scales have been developed during the last decade e.g. CCDR scale. To assess the severity of CDS in this study, two questionnaires (CCDR scale and CADES) were performed before and after oral administration of Compound 2 by a veterinarian. Questionnaires include a broad range of items measuring appetite, drinking behavior, barking, elimination behavior, day/night sleeping pattern, aimless behavior, adaptive capabilities, social behavior, perceptual ability, disorientation, and memory.
CCDR scale consists of 13 items based on CDS symptoms (Table 2). The 13 kinds of behaviors included various problems related to orientation (staring blankly, getting lost in the home), memory (lack of recognition of owners, house-soiling), apathy (reduced time spent active, avoiding contact with owners), impaired olfaction (difficulty finding food), and locomotion. These problems compromise both the dog's quality of life and the dog-owner bond. Scores ≥50 on the CCDR are indicative of CDS in the aged dogs (12-19 years of age). In this study, we compared the CCDR scores before and after administration of Compound 2 in dogs with CDS.

[4] = system: dogs with CDS; test: Canine dementia scale (CADES) questionnaire in companion dogs with CDS; type: in vivo, dog
From the text: as §1, §2, §3
To ensure and confirm the CCDR scale, we used an additional questionnaire, CADES which contains 17 items distributed into four domains, related to changes in dogs' behaviors: spatial orientation, social interaction, sleep-wake cycle, and house soiling (Table 6). It can be classified according to various stages of cognitive impairment: mild, moderate, and severe cognitive impairment. It is known well that CADES is also suitable for long-term assessment of the progression of cognitive impairment in canine, and potentially as efficacy readout for treatments.

[5] = Pharmacokinetics after oral administration in mice; type: in vivo; conditions: mouse, plasma, 2.5 mg/kg
[6] = Pharmacokinetic study in beagle dogs; type: in vivo; conditions: dog, plasma, oral, 20 mg/kg/day
Description: Based upon the safety and pharmacokinetic profile of Compound 2, a dose of 10 mg/kg/day was chosen to investigate safety and efficacy of Compound 2 in canine CDS.

[7] = in vivo; parameters: species or system beagle dogs; conditions: both sexes, beagle, dog, po
Description: The systemic toxic potential of Compound 2 in beagle dogs was investigated in Huntington Life Science, a large non-clinical contract research organization in Cambridgeshire, England. Three groups each comprising three males and three females, received Compound 2 at doses of 20, 65, or 200 mg/kg/day for 13 weeks. […] Consequently, 200 mg/kg/day was considered the no-observed-adverse-effect level (NOAEL) in dogs.

[8] = Stability test; type: physicochemical
Description: In stability test, Compound 2 was stable at 25° C. for at least 60 months. Additionally, the capsule and chewable formulations of Compound 2 were stable at 25° C. for at least 24 and 12 months, respectively.

[9] = system: dogs with CDS; test: Safety assessment in dogs with CDS; type: in vivo; conditions: 10 mg/kg oral once daily
Description: as §2
During this study, the safety of Compound 2 in dogs with CDS was evaluated at every visit.

[10] = system: APP/PS1 mice; test: Animal model of AD (APP/PS1 mice), preliminary data; type: in vivo; conditions: oral, 2.5 mg/kg
[11] = system: G93A mice; test: Animal model of amyotrophic lateral sclerosis (G93A mice), preliminary data; type: in vivo; conditions: oral, 2.5 mg/kg
[12] = biological target: T1, microsomal prostaglandin E(2) synthase-1 (mPGES-1) (Homo sapiens, UniProt O14684); conditions: previous study [20]; cited from earlier work
T1 sequence (O14684 1-152): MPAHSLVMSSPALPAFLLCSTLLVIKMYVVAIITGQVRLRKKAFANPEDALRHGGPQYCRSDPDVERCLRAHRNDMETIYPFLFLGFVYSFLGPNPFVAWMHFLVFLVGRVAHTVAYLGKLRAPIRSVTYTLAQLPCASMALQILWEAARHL

[13] = system: mouse model of amyotrophic lateral sclerosis; conditions: previous study [20]; cited from earlier work
[14] = change vs 0 week, 10 mg/kg oral once daily, per individual dog, 10 mg/kg
[15] = 10 mg/kg oral once daily, per individual dog
[16] = change vs 0 week, per individual dog

CC12CC3CC(C)(C1)CC(N)(C3)C2 [memantine]
mental function and ability to perform daily activities [1]: a small improvement

C#CCN(C)[C@H](C)Cc1ccccc1 [selegiline]
cognitive function in CDS dogs [2]: improved within the first 2 weeks

O=C(O)c1cc(NCCc2ccc(C(F)(F)F)cc2)ccc1O [Compound 2, 2-hydroxy-5-[2-(4-trifluoromethyl-phenyl)-ethylamino]-benzoic acid]
CCDR score, 4 weeks ([3]; 10 mg/kg oral once daily, 4 weeks of administration, individual dog (subject No.)): 38 and 40 and 55 and 56 and 53 and 54 and 60 and 52 and 50 and 43 and 63 and 49 and 30
CCDR score, 8 weeks ([3]; 10 mg/kg oral once daily, 8 weeks of administration, per individual dog): 34 and 46 and 41 and 51 and 54 and 27 and 50 and 53 and 59 and 43 and 30 and 42
beneficial effects maintained after the last administration ([3]; aged companion dogs with severe CDS, oral): at least 4 weeks
CCDR score change, 4 weeks [3, 14]: −22 and −11 (3×) and −9 (2×) and −12 (2×) and −18 and −5 and −1 and −7 and −6 and −16 and −10 and −44 and −13
CCDR score change, 8 weeks [3, 14]: −26 and −5 and −23 and −16 and −11 and −40 and −24 and −6 and −2 and −10 and −9 and −7 and −19 and −44 and −20
CCDR score, 12 weeks ([3]; subjects 3 and 4, 12-week administration): 32 and 43
CCDR score, 16 weeks (discontinuation) ([3]; subjects 3 and 4, 4 weeks after discontinuation of 12-week administration): 38 and 44
CCDR score, 20 weeks (discontinuation) ([3]; subjects 3 and 4, 8 weeks after discontinuation of 12-week administration): 36 and 43
CCDR score, 12 weeks (discontinuation) ([3]; subjects 7, 8, 10, 11, 4 weeks after discontinuation of 8-week administration): 48 and 50 and 54
cognitive function on the CCDR scale ([3]; within 4 weeks of oral administration): near normal cognitive function
CADES score of house soiling (items 13-17), 4 weeks [4, 15]: 5 (2×) and 9 and 16 and 14 and 22 (2×) and 11 and 3 and 19 (2×) and 17 and 10 and 25 and 18 and 4 and 0
CADES score of house soiling (items 13-17), 8 weeks [4, 15]: 4 (2×) and 0 (3×) and 8 and 12 and 18 and 14 and 21 and 20 and 5 and 19 and 17 and 25
CADES score of sleep-wake cycles (items 11-12), 4 weeks [4, 15]: 18 (4×) and 6 and 16 (2×) and 20 (3×) and 0 and 10 (2×) and 8 (2×) and 14 and 4
CADES score of sleep-wake cycles (items 11-12), 8 weeks [4, 15]: 10 and 0 (4×) and 14 and 12 (3×) and 20 (2×) and 16 (2×) and 8 and 6
CADES score of social interaction (items 6-10), 4 weeks [4, 15]: 5 (2×) and 14 (3×) and 17 (2×) and 13 (3×) and 0 and 25 and 15 and 10 and 18 and 20 and 19
CADES score of social interaction (items 6-10), 8 weeks [4, 15]: 15 (2×) and 5 and 10 (2×) and 14 and 11 and 19 and 4 and 24 and 16 and 18 and 9 and 13 and 3
CADES score of spatial orientation (items 1-5), 4 weeks [4, 15]: 5 (3×) and 20 (3×) and 18 (2×) and 16 and 17 and 24 (3×) and 25 (2×) and 13 and 21
CADES score of spatial orientation (items 1-5), 8 weeks [4, 15]: 9 and 15 (3×) and 13 (2×) and 17 and 25 and 0 and 24 and 20 (2×) and 22 and 23 and 4
Total CADES score, 4 weeks [4, 15]: 33 and 49 and 67 and 65 and 68 and 69 and 8 and 89 and 64 and 57 and 66 and 55 and 90 and 51 and 14
Total CADES score, 8 weeks [4, 15]: 38 and 20 and 45 and 53 and 58 and 78 and 4 and 85 and 55 and 63 and 57 and 64 and 40 and 67 and 7
companion dogs showing improvement in spatial disorientation ([4]; 4 weeks after administration, 10 of 17 dogs): 59%
companion dogs showing further improvement in social interaction at 8 weeks compared with 4 weeks ([4]; 8 of 15 dogs): 53%
companion dogs significantly improved in sleep-wake cycle (item 11) ([4]; 8 weeks after administration, 10 of 15 dogs): 67%
cognitive function by total CADES score ([4]; 8 weeks after oral administration): significant improvement in cognitive function was observed from severe to moderate, weak, or normal level
companion dogs with beneficial effects on spatial orientation ([4]; 8 weeks after oral administration, 9 of 15 dogs): 60%
CADES score of house soiling (items 13-17), change, 4 weeks [4, 16]: 1 and −6 and −2 (2×) and −5 (2×) and −1 (2×) and −4 and −15 and 0 (5×) and −3 and −10
CADES score of house soiling (items 13-17), change, 8 weeks [4, 16]: 0 (3×) and −15 and −10 (2×) and −7 and −5 and −1 (2×) and −18 and 1 and −2 and −3 and −6
CADES score of sleep-wake cycles (items 11-12), change, 4 weeks [4, 16]: −2 (5×) and −4 and 4 (2×) and 0 (6×) and −18 and −6 and −12
CADES score of sleep-wake cycles (items 11-12), change, 8 weeks [4, 16]: −10 (3×) and −4 (2×) and −2 (2×) and −6 and 0 (3×) and −18 and 2 and −14 and −16
CADES score of social interaction (items 6-10), change, 4 weeks [4, 16]: −10 and 0 (6×) and −1 (3×) and −2 (2×) and −4 and −14 and −5 and −7 and −11
CADES score of social interaction (items 6-10), change, 8 weeks [4, 16]: 0 (3×) and −9 and −8 and −5 and −2 and 1 and −10 and −1 (2×) and −3 and −6 and −7 and −13
CADES score of spatial orientation (items 1-5), change, 4 weeks [4, 16]: −9 and −3 (2×) and −1 (3×) and −2 (2×) and 2 and −11 and 0 (4×) and 3 and 5 and −19
CADES score of spatial orientation (items 1-5), change, 8 weeks [4, 16]: −5 and −8 and −6 and −3 (2×) and −1 and 3 (2×) and −16 and 0 (4×) and −2 and −20
Total CADES score change, 4 weeks [4, 16]: −20 and −13 and −6 (2×) and −5 (2×) and −4 and −58 and 0 (2×) and −2 and −8 and 5 (2×) and −11 and −15 and −52
Total CADES score change, 8 weeks [4, 16]: −15 and −42 and −28 and −17 and −14 and 3 and −62 and −4 and −9 and −6 and −2 and −10 (2×) and −18 and −59
AUC ([5]; read-out: AUC (area under the plasma level-time curve)): 9610 ± 1380 ng·h/mL
Cmax ([5]; read-out: Cmax (mean maximum plasma concentration)): 5190 ± 960 ng/mL
AUC [6]: 75100 ng·h/mL
Cmax [6]: 10600 ng/mL
NOAEL at 13 weeks [7]: 200 mg/kg/day
stable at 25° C. for [8]: at least 60 months
blood toxicity test [9]: no significant changes
treatment-related adverse events [9]: did not occur
improvement in cognitive and motor functions [10]: maximally beneficial effects
improvement in cognitive and motor functions [11]: maximally beneficial effects
mPGES-1 inhibition, effective concentration [12]: effective at nanomolar concentrations
motor function activity and life span [13]: increases of motor function activity and life span
